Measurements: US4711898A, “4-quinolone derivatives having anti-inflammatory, anti-allergic, antitussive, expectorant and antithrombotic activity” (Nippon Shinyaku Co., Ltd., priority 1982, dated 1987)
Where a name gives a salt, the structure may show the parent alone. Read-outs that look alike come from different tables or passages of the source.

How the values were obtained:
carrageenin edema = experiment: Carrageenin edema at the hind foot of rats; format: in vivo, SD-strain rats; conditions: Rattus norvegicus, po, 3 h, 200 mg/kg per os, one hour before carrageenin; foot volume three hours after; read-out: % Inhibition (carrageenin edema)
Protocol: The anti-inflammatory action of the compounds of the present invention were evaluated by measuring the inhibition against carrageenin edema as set forth below. Carrageenin edema at the hind foot of rats: Experimental method. SD-strain rats of body weights of around 150 grams were used, each group consisting of five rats. A solution (0.1 ml) of 0.5% carrageenin dissolved in physiological saline water was subcutaneously injected into the right hind foot pat of the rats and, one hour prior to the injection of carrageenin, 200 mg/kg of test compound was given per os. Foot volumes of the rats before the carrageenin treatment and those of three hours after the treatment were measured and the differences were compared with those of the control group to adopt as a target of the effect of the compounds.

[1] = system: SRS-A (slow reacting substance of anaphylaxis) contraction of ileum; experiment: Anti-SRS-A action using ileus of guinea pigs; format: cell-based, Hartley strain male guinea pigs; conditions: Cavia porcellus, 5 min, 1/1000 mM; guinea pig ileum; SRS-A 20 units; compound five minutes before; read-out: 1/1000 mM SRS-A Inhibition Ratio %
Outline: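 Ileum from male Hartley guinea pigs (300 to 350 g) in oxygenated Tyrode with 10^-7 g/ml atropine and 10^-6 g/ml pyrilamine, contracted by 20 units SRS-A. Compound added five minutes before; isotonic contraction height compared with SRS-A alone.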

male mice = experiment: Acute toxicity after oral administration; format: in vivo
Protocol: Acute toxicity was determined two weeks after oral administration of 4000 mg/kg to male mice. Four mice (denominator) are used in each group and the dead numbers are given as the numerator. The compounds of the present invention show little, if any, toxicity.

[2] = system: passive cutaneous anaphylaxis (DNP-As homocytotropic antiserum); experiment: passive cutaneous anaphylatic assay (PCA) in rats; format: in vivo, Wistar strain rats; conditions: Rattus norvegicus, po, 1 h, 10 mg/kg orally, one hour before antigen, read-out: PCA Inhibition Ratio %
Outline: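 Wistar rats were sensitised intradermally with diluted DNP-As homocytotropic antiserum and challenged 72 h later with i.v. DNP-As plus Evans Blue. Compounds were given orally at 10 mg/kg 1 h before antigen. Dye extracted from skin sites 30 min post-challenge gave inhibition relative to controls.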

[3] = system: platelet aggregation induced by ADP, collagen and AA; experiment: Action against Platelet Coagulation (aggregation in platelet rich plasma of rabbits); format: cell-based, Male rabbits; conditions: Oryctolagus cuniculus; for inhibition at 100 µM: final concentration 10^-4 M; for inhibition at 10 µM: final concentration 10^-5 M; for inhibition at 1 µM: final concentration 10^-6 M
Protocol: Action against Platelet Coagulation was determined as follows: Male rabbits with body weights of 3 kg or around were used. Blood was taken from their carotid artery and, immediately thereafter, 1/10 volume (to the blood) of 3.8% aqueous solution of sodium citrate was added thereto. The mixture was centrifuged at room temperature (400 g; 10 minutes) to give platelet rich plasma (abbreviated as PRP: containing 5×10^5 platelets per mm^3). The PRP was then placed into a cell for platelet coagulation meter (Niko Bioscience), stirred, 5 microliters of test compound solution in dimethyl sulfoxide was added and, one minute thereafter, 5 micromolar of ADP, 10 micrograms/ml of collagen or 25 microliters of arachidoic acid (AA) was added thereto to observe changes of extinctions. From the maximum coagulation value at the time of administration the of test compound against that at the time of the solvent addition, inhibition was calculated and the effect of the compounds against the platelet coagulation was determined.

[4] = cited from earlier work
[5] = AA 150 μM, read-out: Inhibition (%) of platelet aggregation, AA (150 μM)
[6] = ADP 5 μM, read-out: Inhibition (%) of platelet aggregation, ADP (5 μM)
[7] = collagen 10 μg/ml, read-out: Inhibition (%) of platelet aggregation, Collagen (10 μg/ml)
[8] = 4000 mg/kg oral, male mice, two weeks, dead/group of four

Row | Structure (SMILES) | inhibition in vivo at 200 mg/kg (carrageenin edema) [%] | inhibition at 1 µM [1] [%] | Lethal Ratio (male mice; mouse, in vivo) | inhibition in vivo at 10 mg/kg [2] [%] | also measured
1 | CCCCCCn1c(-c2ccccc2)cc(=O)c2cc(C(=O)O)ccc21 [Example 20] | 10.6 | 83.9 | 1/4 | 26.4 | 
2 | COC(=O)c1ccc2[nH]c(-c3ccccc3I)cc(=O)c2c1 [Example 28] | 15.9 | 55.6 | 0/4 | 19.6 | 
3 | Cc1ccccc1-c1cc(=O)c2cc(C(=O)O)ccc2[nH]1 [Example 42] | 11.8 | 17.4 | 0/4 | 43.2 | 
4 | COC(=O)c1ccc2[nH]c(-c3ccccc3OC)cc(=O)c2c1 [Example 56] |  | 25.2 | 1/4 | 22.3 | 
5 | CCOC(=O)c1cccc2c1N=C(c1ccccc1Cl)CC2=O [Example 83, ethyl 2-(2-chlorophenyl)-4-quinolone-8-carboxylate] | 22.5 | 75.9 |  | 28.5 | inhibition at 100 µM [3, 5]: 100%; inhibition at 10 µM [3, 5]: 3.3%; inhibition at 100 µM [3, 6]: 18.5%; inhibition at 100 µM [3, 7]: 100%; inhibition at 10 µM [3, 7]: 14%; Lethal Ratio (male mice; [8]): 0/4
6 | O=C(O)c1cccc2c(=O)cc(-c3ccccc3Cl)[nH]c12 [Example 84] |  |  |  |  | Lethal Ratio (male mice; [8]): 0/4
7 | O=C(O)c1cccc2c(=O)cc(-c3ccccc3Cl)[nH]c12 [Example 85] |  | 27.9 | 0/4 | 17 | 
8 | CCOC(=O)c1cccc2c(=O)cc(-c3ccc(Cl)cc3Cl)[nH]c12 [Example 89] |  | 55.6 | 0/4 | 26.2 | 
9 | CCOC(=O)c1cccc2c(=O)cc(-c3ccc(C)cc3C)[nH]c12 [Example 94] |  | 78.6 | 1/4 | 25.7 | 
10 | CCOC(=O)c1cccc2c(O)cc(-c3ccccc3Cl)nc12 [Example 100, Ethyl 2-(2-chlorophenyl)-4-hydroxyquinoline-8-carboxylate hydrochloride] |  | 70.5 |  | 29.7 | Lethal Ratio (male mice; [8]): 0/4
11 | COc1ccc2c(c1)c(CC(=O)O)c(C)n2C(=O)c1ccc(Cl)cc1 [Indomethacin] |  |  |  |  | inhibition at 100 µM [3, 5]: 100%; inhibition at 10 µM [3, 5]: 100%; inhibition at 1 µM [3, 5]: 1.6%; inhibition at 100 µM [3, 6]: 2.6%; inhibition at 100 µM [3, 7]: 100%; inhibition at 10 µM [3, 7]: 100%; inhibition at 1 µM [3, 7]: 19.6%
12 | O=C(O)c1cc(=O)c2c(OCC(O)COc3cccc4oc(C(=O)O)cc(=O)c34)cccc2o1 [Sodium chromoglicate] |  |  |  |  | effect on oral administration [4]: does not show any effect on oral administration
